Laboratory results: ChEMBL document CHEMBL1129808, “A novel photoaffinity label for the dopamine transporter based on N-substituted 3-[bis(4-fluorophenyl)methoxy]tropane” (Bioorg Med Chem Lett, 1997)

Molecular target: Sodium-dependent dopamine transporter (Rattus norvegicus, UniProt P23977)
Assay: The compound was tested for binding affinity towards dopamine transporter in rat caudate putamen
Type: tissue-based

Sequence of Sodium-dependent dopamine transporter (P23977 whole entry): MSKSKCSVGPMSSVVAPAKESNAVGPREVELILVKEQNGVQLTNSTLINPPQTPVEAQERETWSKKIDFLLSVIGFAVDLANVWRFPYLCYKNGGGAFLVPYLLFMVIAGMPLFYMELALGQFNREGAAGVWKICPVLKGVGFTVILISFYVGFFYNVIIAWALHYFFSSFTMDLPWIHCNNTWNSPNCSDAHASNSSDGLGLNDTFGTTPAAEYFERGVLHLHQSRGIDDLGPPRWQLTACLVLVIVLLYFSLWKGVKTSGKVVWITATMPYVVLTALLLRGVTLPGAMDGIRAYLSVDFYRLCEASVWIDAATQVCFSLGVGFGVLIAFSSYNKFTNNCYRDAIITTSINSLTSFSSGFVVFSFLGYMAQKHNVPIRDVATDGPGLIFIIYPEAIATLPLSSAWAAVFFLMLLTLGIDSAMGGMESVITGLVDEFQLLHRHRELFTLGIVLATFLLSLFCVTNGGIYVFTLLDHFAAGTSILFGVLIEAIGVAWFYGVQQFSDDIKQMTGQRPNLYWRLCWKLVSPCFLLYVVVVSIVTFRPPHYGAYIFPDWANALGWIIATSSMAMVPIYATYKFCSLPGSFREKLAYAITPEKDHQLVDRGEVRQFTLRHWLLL

Row | SMILES | Ki [nM]
1 | [N-]=[N+]=Nc1ccc(CCCCN2[C@@H]3CC[C@H]2C[C@@H](OC(c2ccc(F)cc2)c2ccc(F)cc2)C3)cc1I | 159
2 | Nc1ccc(CCCCN2[C@@H]3CC[C@H]2C[C@@H](OC(c2ccc(F)cc2)c2ccc(F)cc2)C3)cc1 | 29.7
